Assays:
[1] = in vitro; conditions: mouse, swiss 3t3 fibroblasts
Experimental: (§1) A third assay utilized in the present invention involves an in vitro cytotoxicity assay. This assay is used to further characterize the compounds in order to assess toxic activities of compounds on contact inhibited, non-dividing 3T3 fibroblasts. Other toxicity assays may be used.
(§2) Contact inhibited Swiss 3T3 fibroblasts are purchased from ATCC. The cells are maintained in 1640 RPMI supplemented with 10% fetal bovine serum (Gibco).
(§3) On day of assay, cells are detached from flasks by trypsinization, washed in medium and counted. 100 microliters of 2.5 x 10^4 cells per well are plated into Falcon brand 96 well tissue culture plates and cells incubated at 37°C in presence of 5% CO2 for 2 days or until confluent.
(§4) […] All compound dilutions are assayed in triplicate. […] Cells are returned to the incubator for 2 days.
(§5) After 2 day incubation, the 3T3 cells are assayed for viability using an MTS Assay Kit (Promega). Media is added to blank wells for background calculations. After 2 hours incubation in kit reagent, the optical density at 490 nm for each compound and control is determined by plate reader.
(§6) Results are expressed as percent cytotoxicity, i.e., (mean OD of compound wells - background OD)/ (mean OD of controls - background).
(§7) Note that starting concentration of CsA was 1 µM. […]

[2] = tested on: Swiss 3T3 fibroblasts; test: in vitro
Experimental: as §1, §2, §3, §4, §5, §6, §7

[3] = tested on: IL-13; test: In vivo ovalbumin (OVA) mouse model, BALF IL-13; design: species or system mice; conditions: for IL-13 pg/ml (± SEM): 30 minutes before OVA challenge, BALF 24 hours, vehicle 120.2 ± 19.8
Experimental: This model is designed to determine the ability of a test article to modulate an antigen-induced pulmonary inflammatory cell accumulation in sensitized Balb/c mice from Charles River Laboratories. The mice are given a two week time period from arrival date prior to sensitizations.
On days 0, 7, 14, each animal is injected intraperitoneal (i.p.) with a 0.2 ml Ovalbumin Hydragel solution. Each animal receives 10 µg of Ovalbumin in 0.2 mL of Hydragel, aluminum hydroxide adsorptive gel containing 2% aluminum oxide. […] On day 22, BALF samples are collected from one group of animals and used for cytokine analysis. On day 24, BALF is obtained from a second group of animals and used for differential cell counts.
Test System: Female Babl/cJ mice (Jackson Laboratories), approximately 6-9 weeks old, each weighing approximately 20 to 25 grams, are divided into ten animals per group.
Sensitization Regimen: Mice are sensitized by an intraperitoneal injection of 10 µg ovalbumin (OVA) mixed in 4 mg aluminum hydroxide Al(OH)3 gel suspension in 0.2 ml sterile saline on Days 0, 7 and 14. This suspension is prepared one hour before intraperitoneal injection into each mouse. The animals are ready for OVA challenge on Day 21.
Antigen Challenge: Animals are exposed to aerosolized OVA on day 21 (5% w/v in sterile saline) for 20 minutes. The aerosol is generated by a PARI-Master nebulizer, the outlet of which is connected to a small Plexiglas® chamber containing the animals. Bronchoalveolar lavage is performed on Day 22.
Method of Study Performance: On day 24, 72 hours following aerosol OVA exposure, a separate group of animals are anesthetized with urethane (0.15 - 0.2 gm/kg) and the trachea is exposed and cannulated. […] Total cells and eosinophils are determined using a Technicon Hl and cytoslides, respectively. […]
Mice (12 animals per group) are sensitized with 0.2 ml of an AlOH3 hydrogel suspension (2% AlOH3) containing 50 µg/ml ovalbumin on days 0, 7 and 14. […] After the OVA challenge for 24 hours, the mice underwent bronchoalveolar lavage and IL-4 and IL-13 levels in the BALF are determined by ELISA. […]

## O=C(O)c1[nH]c2ccccc2c1Nc1ccncc1 [Example 28, 3-(4-Pyridinylamino)-1H-indole-2-carboxylic acid]
[1]
  viability at 48 h, 0.001 µM: 124%
  viability at 48 h, 0.01 µM: 112%
  viability at 48 h, 0.03 µM: 111%
  viability at 48 h, 0.1 µM: 111%
  viability at 48 h, 3 µM: 110%
  viability at 48 h, 10 µM: 99.1%
[2]
  toxic effects on the viability of quiescent 3T3 cells (in words): no toxic effects
[3]; 10 mg/kg intranasal
  IL-13 pg/ml (± SEM): 59.9 ± 12.7 pg/mL
[3]; 30 mg/kg intranasal
  IL-13 pg/ml (± SEM): 15.1 ± 7.1 pg/mL
[3]; Mus musculus, mice, intranasally, FIG. 1, read-out: ED50, allergen-induced IL-13 levels in the BALF
  ED50: ~10 mg/kg

— patent EP1501797B1, “3-(SUBSTITUTED AMINO)-1H-INDOLE-2-CARBOXYLIC ACID ESTER AND 3-(SUBSTITUTED AMINO)-BENZO[B]THIOPHENE-2-CARBOXYLIC ACID ESTER DERIVATIVES AS INTERLEUKIN-4 GENE EXPRESSION INHIBITORS” (Aventis Pharmaceuticals Inc., priority 2002, dated 2003)
